In ChEMBL document CHEMBL1212716, “Impact of linker strain and flexibility in the design of a fragment-based inhibitor” (Nat Chem Biol, 2009) one finds inhibition and Ki data, which are given here for five molecules.

Assay [1] addresses T1, Uracil-DNA glycosylase (Homo sapiens, UniProt P13051). Nature of the assay: Inhibition of human uracil DNA glycosylase at […] using fluorescent DNA substrate.
For assay [2], the target named is T1, Uracil-DNA glycosylase. Kind of assay: Inhibition of human uracil DNA glycosylase using fluorescent DNA substrate.

The structures appear in SMILES notation.

T1 sequence (P13051 whole entry): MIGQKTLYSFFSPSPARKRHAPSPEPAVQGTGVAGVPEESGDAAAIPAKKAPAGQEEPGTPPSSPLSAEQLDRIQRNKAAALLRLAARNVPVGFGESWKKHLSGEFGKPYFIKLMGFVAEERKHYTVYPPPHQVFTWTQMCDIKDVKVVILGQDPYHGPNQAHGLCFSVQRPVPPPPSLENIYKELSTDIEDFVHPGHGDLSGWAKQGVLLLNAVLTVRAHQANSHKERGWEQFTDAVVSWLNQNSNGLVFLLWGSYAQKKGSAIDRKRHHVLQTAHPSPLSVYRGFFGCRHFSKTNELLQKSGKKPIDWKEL

The term inhibition denotes the relative decrease from the control value, in per cent. A higher inhibition goes with a strong effect. Usually Ki stands for the dissociation constant of the complex between target and ligand, obtained from inhibition or displacement. Read a high Ki as weaker binding. The molecule `NCCCO/N=C/c1cccc(C(=O)O)c1` displayed an inhibition in assay [1] of 25%. The molecule also registered a Ki in assay [2] of 10 mM. In the case of `NOCCCNCc1cccc(C(=O)O)c1`, in assay [1], the inhibition turned out to be 18%. For the same molecule, affinity in assay [2] was put at a Ki of 16 mM. Consider `NCCCO/N=C/c1cc(=O)[nH]c(=O)[nH]1`, for which the affinity in assay [2] corresponds to a Ki of 0.75 mM. Same read-out and setting: with `NOCCCNCc1cc(=O)[nH]c(=O)[nH]1` the figure was 0.7 mM. As for `O=Cc1cccc(C(=O)O)c1` [3-FORMYLBENZOIC ACID], in assay [2], the affinity corresponds to a Ki of 10 mM.
